Test results: article doi:10.1101/2024.12.23.630153v1 (biorxiv, 2024)

What follows are compounds tested against T1, OXA-57 (Burkholderia pseudomallei, UniProt Q6ZZZ2) (assay: biochemical). Conditions: pIC50.
T1 sequence (Q6ZZZ2 24-269 limits assumed): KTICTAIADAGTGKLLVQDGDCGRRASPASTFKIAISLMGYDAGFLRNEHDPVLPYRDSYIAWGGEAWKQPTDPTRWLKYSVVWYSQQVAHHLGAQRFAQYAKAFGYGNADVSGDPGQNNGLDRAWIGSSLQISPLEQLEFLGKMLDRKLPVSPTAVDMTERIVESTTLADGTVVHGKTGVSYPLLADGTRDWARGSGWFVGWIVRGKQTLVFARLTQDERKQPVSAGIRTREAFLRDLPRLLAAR
Compound `O=C(O)[C@H]1/C(=C/CO)O[C@@H]2CC(=O)N21` [Clavulanate] has an IC50 of 12.6 µM.

What follows are compounds tested against T1, OXA-57 (assay: not given). Conditions: not given.
With `CC(=O)OCC1=C(C(=O)O)N2C(=O)[C@@H](NC(=O)Cc3cccs3)[C@H]2SC1` [Cephalothin] the Ki was 405 ± 97 µM. `C[C@@H](O)[C@H]1C(=O)N2C(C(=O)O)=C(SCCN=CN)C[C@H]12` [Imipenem] was tested, and the Ki was 265 ± 79 µM. In the case of `C[C@@H](O)[C@H]1C(=O)N2C(C(=O)O)=C(S[C@@H]3CN[C@H](C(=O)N(C)C)C3)[C@H](C)[C@H]12` [Meropenem], the Ki is reported as 646 ± 355 µM.

These compounds were tested against T1, OXA-57 (assay: biochemical). Conditions: not given.
`C[C@H]1[C@H](NC(=O)/C(=N\OC(C)(C)C(=O)O)c2csc(N)n2)C(=O)N1S(=O)(=O)O` [Aztreonam] gave an IC50 of over 3980 µM. `CO/N=C(\C(=O)N[C@@H]1C(=O)N2C(C(=O)O)=C(COC(C)=O)CS[C@H]12)c1csc(N)n1` [Cefotaxime] was tested, and the IC50 was over 3980 µM. With `CC(C)(O/N=C(\C(=O)N[C@@H]1C(=O)N2C(C(=O)[O-])=C(C[n+]3ccccc3)CS[C@H]12)c1csc(N)n1)C(=O)O` [Ceftazidime] the IC50 was over 3980 µM. For `O=C(O)[C@H]1/C(=C/CO)O[C@@H]2CC(=O)N21` [Clavulanate], the IC50 was 9.4 µM. `O=C(O)C[C@@H]1CC[C@H](NC(=O)Cc2cccs2)B(O)O1` [Vaborbactam] was tested, and the IC50 was over 3980 µM.
